US12409139B2, “Stable parenteral formulations of duloxetine” (LEIUTIS PHARMACEUTICALS LLP, priority 2020, dated 2025)
Read-outs that look alike come from different tables or passages of the source.

Columns and labels:
[1] = for Assay (%) / Total Impurities / pH: RT-25° C.
Procedure: The solution state stability of duloxetine was studied in various buffers for 24 hours.
The samples were stored for 24 hours and analyzed for pH, assay and total impurities by standard analytical procedures.

[2] = commercial delayed release (enteric coated) capsules, oral; cited from earlier work
[3] = Acetate Buffer (pH-5.5), Initial
[4] = Acetate Buffer (pH-6.4), Initial
[5] = Aspartic acid + Boric Acid Buffer (pH-5.5), 24 h
[6] = Aspartic acid + Boric Acid Buffer (pH-5.5), Initial
[7] = Aspartic acid + Boric Acid Buffer (pH-6.4), 24 h
[8] = Aspartic acid + Boric Acid Buffer (pH-6.4), Initial
[9] = Glycine Buffer (pH-5.5), Initial
[10] = Glycine Buffer (pH-6.4), Initial
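Throughout, for Solubility observation: solubility and solution-stability study of the drug dissolved in assorted buffers across a range of pH values.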

CNCCC(Oc1cccc2ccccc12)c1cccs1 (single isomer, unassigned; (+)) [duloxetine, (+)-N-methyl-3-(1-naphthalenyloxy)-3-(2-thienyl) propan-1-amine]
Assay (%) ([1]; Acetate Buffer (pH-5.5), 24 h): 92.4%
Total Impurities ([1]; Acetate Buffer (pH-5.5), 24 h): 0.2
pH ([1]; Acetate Buffer (pH-5.5), 24 h): 5.4
Assay (%) [1, 3]: 93.9%
Total Impurities [1, 3]: 0.14
pH [1, 3]: 5.32
Assay (%) ([1]; Acetate Buffer (pH-6.4), 24 h): 90.3%
Total Impurities ([1]; Acetate Buffer (pH-6.4), 24 h): 0.1
pH ([1]; Acetate Buffer (pH-6.4), 24 h): 6.1
Assay (%) [1, 4]: 94.3%
Total Impurities [1, 4]: 0.1
pH [1, 4]: 6.38
Assay (%) [1, 5]: 93.3%
Total Impurities [1, 5]: 0.5
pH [1, 5]: 5.7
Assay (%) [1, 6]: 93.0%
Total Impurities [1, 6]: 0.3
pH [1, 6]: 5.8
Assay (%) [1, 7]: 97.8%
Total Impurities [1, 7]: 0.5
pH [1, 7]: 6.5
Assay (%) [1, 8]: 97.9%
Total Impurities [1, 8]: 0.3
pH [1, 8]: 6.6
Assay (%) ([1]; Glycine Buffer (pH-5.5), 24 h): 104.8%
Total Impurities ([1]; Glycine Buffer (pH-5.5), 24 h): 0.2
pH ([1]; Glycine Buffer (pH-5.5), 24 h): 5.5
Assay (%) [1, 9]: 105%
Total Impurities [1, 9]: 0.12
pH [1, 9]: 5.59
Assay (%) ([1]; Glycine Buffer (pH-6.4), 24 h): 96.6%
Total Impurities ([1]; Glycine Buffer (pH-6.4), 24 h): 0.18
pH ([1]; Glycine Buffer (pH-6.4), 24 h): 6.35
Assay (%) [1, 10]: 97.7%
Total Impurities [1, 10]: 0.10
pH [1, 10]: 6.23
Solution state stability in terms of assay and total impurities (in words) ([1]; acetate buffer at pH-5.5 and pH-6.4 and glycine buffer at pH-5.5 and pH-6.4, 24 hours): best results
Solution state stability (in words) ([1]; all the buffers tested, stored for 24 hours): satisfactory stability
Solubility observation (0.1N Sodium hydroxide buffer, pH 4.5, 10 mg/ml): Insoluble
Solubility observation (0.1N Sodium hydroxide buffer, pH 5.5, 10 mg/ml): Insoluble
Solubility observation (0.1N Sodium hydroxide buffer, pH 6.4, 10 mg/ml): Insoluble
Solubility observation (Acetate buffer, pH 4.5, 10 mg/ml): Clear solution
Solubility observation (Acetate buffer, pH 5.5, 10 mg/ml): Clear solution
Solubility observation (Acetate buffer, pH 6.4, 10 mg/ml): Clear solution
Solubility observation (Acetate buffer, pH 7.5, 10 mg/ml): Clear solution
Solubility observation (Alanine buffer, pH 4.5, 10 mg/ml): Clear solution
Solubility observation (Alanine buffer, pH 5.5, 10 mg/ml): Clear solution
Solubility observation (Alanine buffer, pH 6.4, 10 mg/ml): Insoluble
Solubility observation (Aspartic acid and Boric acid buffer, pH 4.5, 10 mg/ml): Clear solution
Solubility observation (Aspartic acid and Boric acid buffer, pH 5.5, 10 mg/ml): Clear solution
Solubility observation (Aspartic acid and Boric acid buffer, pH 6.4, 10 mg/ml): Insoluble
Solubility observation (Citrate buffer, pH 4.5, 10 mg/ml): Insoluble
Solubility observation (Citrate buffer, pH 5.5, 10 mg/ml): Insoluble
Solubility observation (Citrate buffer, pH 6.4, 10 mg/ml): Insoluble
Solubility observation (Glycine buffer, pH 4.5, 10 mg/ml): Clear solution
Solubility observation (Glycine buffer, pH 5.5, 10 mg/ml): Clear solution
Solubility observation (Glycine buffer, pH 6.4, 10 mg/ml): Clear solution
Solubility observation (Glycine buffer, pH 7.5, 10 mg/ml): Clear solution
Solubility observation (Histidine buffer, pH 4.5, 10 mg/ml): Insoluble
Solubility observation (Histidine buffer, pH 5.5, 10 mg/ml): Insoluble
Solubility observation (Histidine buffer, pH 6.4, 10 mg/ml): Insoluble
Solubility observation (Isoleucine buffer, pH 4.5, 10 mg/ml): Clear solution
Solubility observation (Isoleucine buffer, pH 5.5, 10 mg/ml): Clear solution
Solubility observation (Isoleucine buffer, pH 6.4, 10 mg/ml): Clear solution
Solubility observation (Isoleucine buffer, pH 7.5, 10 mg/ml): Clear solution
Solubility observation (Lactic acid buffer, pH 4.5, 10 mg/ml): Clear solution
Solubility observation (Lactic acid buffer, pH 5.5, 10 mg/ml): Clear solution
Solubility observation (Lactic acid buffer, pH 6.4, 10 mg/ml): Clear solution
Solubility observation (Lactic acid buffer, pH 7.5, 10 mg/ml): Clear solution
Solubility observation (Leucine buffer, pH 4.5, 10 mg/ml): Clear solution
Solubility observation (Leucine buffer, pH 5.5, 10 mg/ml): Clear solution
Solubility observation (Leucine buffer, pH 6.4, 10 mg/ml): Clear solution
Solubility observation (Leucine buffer, pH 7.5, 10 mg/ml): Clear solution
Solubility observation (Lysine buffer, pH 4.5, 10 mg/ml): Insoluble
Solubility observation (Lysine buffer, pH 5.5, 10 mg/ml): Insoluble
Solubility observation (Lysine buffer, pH 6.4, 10 mg/ml): Insoluble
Solubility observation (Meglumine buffer, pH 4.5, 10 mg/ml): Insoluble
Solubility observation (Meglumine buffer, pH 5.5, 10 mg/ml): Insoluble
Solubility observation (Meglumine buffer, pH 6.4, 10 mg/ml): Insoluble
Solubility observation (Methionine buffer, pH 4.5, 10 mg/ml): Clear solution
Solubility observation (Methionine buffer, pH 5.5, 10 mg/ml): Clear solution
Solubility observation (Methionine buffer, pH 6.4, 10 mg/ml): Clear solution
Solubility observation (Methionine buffer, pH 7.5, 10 mg/ml): Clear solution
Solubility observation (Phenyl alanine buffer, pH 4.5, 10 mg/ml): Clear solution
Solubility observation (Phenyl alanine buffer, pH 5.5, 10 mg/ml): Clear solution
Solubility observation (Phenyl alanine buffer, pH 6.4, 10 mg/ml): Insoluble
Solubility observation (Phosphate buffer, pH 4.5, 10 mg/ml): Clear solution
Solubility observation (Phosphate buffer, pH 5.5, 10 mg/ml): Insoluble
Solubility observation (Phosphate buffer, pH 6.4, 10 mg/ml): Insoluble
Solubility observation (Proline buffer, pH 4.5, 10 mg/ml): Clear solution
Solubility observation (Proline buffer, pH 5.5, 10 mg/ml): Clear solution
Solubility observation (Proline buffer, pH 6.4, 10 mg/ml): Clear solution
Solubility observation (Proline buffer, pH 7.5, 10 mg/ml): Clear solution
Solubility observation (Serine buffer, pH 4.5, 10 mg/ml): Clear solution
Solubility observation (Serine buffer, pH 5.5, 10 mg/ml): Clear solution
Solubility observation (Serine buffer, pH 6.4, 10 mg/ml): Clear solution
Solubility observation (Serine buffer, pH 7.5, 10 mg/ml): Insoluble
Solubility observation (Sodium phosphate buffer, pH 4.5, 10 mg/ml): Clear solution
Solubility observation (Sodium phosphate buffer, pH 5.5, 10 mg/ml): Insoluble
Solubility observation (Sodium phosphate buffer, pH 6.4, 10 mg/ml): Insoluble
Solubility observation (Succinate buffer, pH 4.5, 10 mg/ml): Clear solution
Solubility observation (Succinate buffer, pH 5.5, 10 mg/ml): Insoluble
Solubility observation (Succinate buffer, pH 6.4, 10 mg/ml): Insoluble
Solubility observation (Tartaric acid buffer, pH 4.5, 10 mg/ml): Insoluble
Solubility observation (Tartaric acid buffer, pH 5.5, 10 mg/ml): Insoluble
Solubility observation (Tartaric acid buffer, pH 6.4, 10 mg/ml): Insoluble
Solubility observation (Tris buffer, pH 4.5, 10 mg/ml): Insoluble
Solubility observation (Tris buffer, pH 5.5, 10 mg/ml): Insoluble
Solubility observation (Tris buffer, pH 6.4, 10 mg/ml): Insoluble
Solubility observation (Tryptophan buffer, pH 4.5, 10 mg/ml): Clear solution
Solubility observation (Tryptophan buffer, pH 5.5, 10 mg/ml): Clear solution
Solubility observation (Tryptophan buffer, pH 6.4, 10 mg/ml): Clear solution
Solubility observation (Tryptophan buffer, pH 7.5, 10 mg/ml): Clear solution
Solubility observation (Valine buffer, pH 4.5, 10 mg/ml): Clear solution
Solubility observation (Valine buffer, pH 5.5, 10 mg/ml): Clear solution
Solubility observation (Valine buffer, pH 6.4, 10 mg/ml): Clear solution
Solubility observation (Valine buffer, pH 7.5, 10 mg/ml): Clear solution
time for the absorption to begin [2]: 2 h
